Assay results reported in patent publication US20260209256A1, “PHOSPHINE OXIDE-BASED PHOTOINITIATORS” (Arkema France, priority 2022, published 2026).

Legend:
[1] = Curing experiments: belt cure under LED lamp at 395 nm; details: LED 395 nm, 50 μm film
Experimental: Testing Protocol: Formulations were prepared by combining all materials in the given proportions and then stirring at 30-40° C. until the samples were fully homogeneous; the formulations were then allowed to cool to 20° C. All components remained fully dissolved in the resin formulations throughout these experiments. For all experiments, the formulations were cured on Leneta Form 3N-31 gloss finish paper at 50 μm film thickness using a belt-cure instrument; the films were prepared using a K-bar. All films were then cured under an LED lamp at 395 nm at a belt speed of 10 m/min. The cure speed for each formulation was calculated from the number of passes under each lamp required to give complete surface cure (determined when light scratching of the surface of the film no longer left a mark) and depth cure (determined using the ‘thumb-twist’ test, where no visible mark is made when a thumb is pressed down firmly onto the coating with a twisting motion), and from the belt speed; the calculated cure speed (in m/min) is given in Tables 1A-1B as an average of 3 runs. Where cure speed was less than 0.3 m/min, the result was recorded as ‘No cure’.

[2] = Stability in inkjet formulations, mercury curing; format: physicochemical; details: cyan ink, same phosphine oxide w/w %, 6 μm film; FIG. 7A
Experimental: Resins and photoinitiators were mixed at the target weight ratio before gently stirring using magnetic stirrers at 30-40° C. for 3 hours. Solubility was checked by eye to confirm full dissolution. Curing results at target film weight, were checked by lightly scratching for surface curing and compressed thumb twist for depth curing. Average curing speed was calculated using the belt speed divided by the passing number recorded when full cured resin was achieved. For practical purposes, curing speed less than 0.3 m/min was categorised as “No cure”. Duplicate curing was performed for the same formulation, average curing speed was used for final comparisons.
Cure speed of samples was checked at T=0, then samples were aged in an oven at 60° C. for 2 weeks before reassessing cure speed. Comparison of the initial cure speed vs the cure speed of aged samples was directly compared. Lamp system: the mercury lamp was at an intensity of 50%, with belt speed 10 m/min The LED lamp was set at 395 nm, with a lamp intensity of 70%, at belt speed 20 m/min

[3] = Stability in inkjet formulations, LED curing 395 nm; format: physicochemical; details: cyan ink, 6 μm film; FIG. 7B
Experimental: Resins and photoinitiators were mixed at the target weight ratio before gently stirring using magnetic stirrers at 30-40° C. for 3 hours. Solubility was checked by eye to confirm full dissolution. Curing results at target film weight, were checked by lightly scratching for surface curing and compressed thumb twist for depth curing. Average curing speed was calculated using the belt speed divided by the passing number recorded when full cured resin was achieved. For practical purposes, curing speed less than 0.3 m/min was categorised as “No cure”. Duplicate curing was performed for the same formulation, average curing speed was used for final comparisons. […] Comparison of the initial cure speed vs the cure speed of aged samples was directly compared. […] Film weights were 6 μm.

[4] = UV PhotoDSC of nail gel top coat compositions
Experimental: Photo Differential Scanning Calorimetry (PhotoDSC) was used to measure the cure speed, heat generation during cure and heat flow measurements for the UV curable top coat compositions containing TPO, TPO-L and Photoinitiator 9 as shown in Table 2C below. PhotoDSC was measured using a TA instruments Q2000 DSC equipped with an EFOS A4000 Acticure UVNisible light curing system containing a 100 W Mercury lamp light source. The UV-light intensity was measured out of the sample window using an EIT UV power puck II radiometer prior to the experiment. Sample preparation for PhotoDSC occurred as follows: A Tzero aluminum reference pan and a Tzero aluminum sample pan were weighed. One drop of formulation (about 5-15 milligrams) was placed at the center of the sample pan and the mass was recorded. The two pans were placed in the DSC apparatus. The system was stabilized at 25° C. for 30 seconds under a continuous stream of nitrogen. An isothermal experiment was initiated and sample and reference pan were flooded with UVNisible light (320 to 450 nm, 190-210 mJ/cm^2) for two minutes. An exothermic peak, due to crosslinking, is recorded during the experiment. The cure speed is measured by determining the time it takes to reach the peak max while the lamp is turned on. The area under the peak is recorded as the heat flow value (J/g). The max temperature during cure is recorded as the temperature shown at the maximum peak during cure.

[5] = LED-DSC test of 3D printing curable compositions
Experimental: A photo differential scanning calorimetry (DSC) with a customized 405 nm LED lamp setup was used. All photopolymerization rate measurement were performed using a Q2000 DSC unit from TA Instruments. A lamp holder for the DSC unit can be customized and printed from Arkema N3xtDimention® engineered resin N3D-TOUGH784 in order to ensure precisely fit of a 405 nm lamp AccuCure ULM-2-405 from Digital Light Labs. The LED light was automatically triggered by connecting the “Event” outlet of the DSC unit to an Accure Photo Rheometer Ultraviolet Illumination & Measurement System. LED light exposure can be programed by using “Event” on or off from Photo DSC software, but the intensity of light can be preset from the Accure Photo Rheometer Ultraviolet Illumination & Measurement System. For measurement, approximate 10 mg liquid sample was placed at the center of a T130522 DSC Tzero pan, cured by exposing it to 50 mW/cm^2 of 405 nm LED light for 0.3 minutes under a 50 mL/min N2 flow rate and 40° C. The resulting heat flow (W/g) curve was collected to analyze maximum heat flow peak value and maximum peak time, and listed in Table 3A.

[6] = FTIR test: acrylate conversion; details: FIG. 2A
Experimental: A Fourier Transform Infrared (FTIR) with an Attenuated Total Reflection (ATR) setup was used. All polymerization rate measurements were performed using Nicolet iS50 FT-IR Spectrometer from Thermo Scientific, equipped with a standard DLaTGS detector. A lamp holder for the ART platform of FTIR unit can be customized and printed from Arkema N3xtDimention® engineered resin N3D-TOUGH784 in order to ensure precisely fit of a 405 nm lamp AccuCure ULM-2-405 from Digital Light Labs. On the bottom of this lamp holder, a dry air channel is built in to allow air uniformly blowing over sample surface, the gas flow rate can be controlled over a rotameter. The LED light was manually triggered by Ultraviolet illumination & Measurement System. […] Measurements of acrylate conversion were taken at the height under the reference peak around 1720 cm^−1; the acrylate peak at approximately 1407 cm^−1 was also measured. Peak height was determined using the baseline technique where a baseline is chosen to be the two lowest points between 600 cm^−1 and 1800 cm^−1. The height under the peak and above the baseline was then determined. […]
The ratio of the acrylate height to the reference peak height were determined for both the liquid and the cured samples. Degree of cure or conversion, expressed as percentage reacted acrylate, was calculated from the equation below: […]

[7] = Stability by LED-FTIR analysis at 405 nm (accelerated ageing); format: physicochemical; details: photoinitiator or formulation aged at 60° C. for 1 week, 10 mW, dry air, FIG. 6A/6B
Experimental: The cure speed of aged samples comprising Photoinitiator 11 vs Speedcure TPO was acquired in experimental formulations using LED-FTIR analysis. The photoinitiator was aged at 60° C. for 1 week, then made into formulation and directly compared to ageing the photoinitiator in formulation at 60° C. for 1 week.
LED FT-IR Analysis was conducted on a ThermoScientific Nicolet iS50 Ft-IR Spectrometer with a standard DLaTGS detector 2. A film applicator was used to spread the applied sample into a film of 3 mils thickness. For analysis all the spectra are normalized by using the 1727 cm^−1 (—C═O stretch) peak as reference. For acrylic monomers, the decrease in peak height of C═C peak at 1407 cm^−1 was used for measuring conversion versus time The degree of conversion of the monomers was calculated by measuring the peak height. The stability results for the formulations comprising Speedcure TPO are shown in FIG. 6A and stability the results for the formulations comprising Photoinitiator 11 are shown in FIG. 6B.

[8] = 8% w/w photoinitiator in 7:3 w/w bisphenol A ethoxylate diacrylate/tripropylene glycol diacrylate, average of 3 runs
[9] = same active phosphine oxide concentration (given Wt %) in 7:3 w/w bisphenol A ethoxylate diacrylate/tripropylene glycol diacrylate
[10] = compositions containing 2 wt % photoinitiator
[11] = compositions containing 4 wt % photoinitiator

SMILES | Cure speed (m/min) Depth cure [1, 8] | Cure speed (m/min) Surface cure [1, 8] | Cure speed (m/min) Depth cure [1, 9] | Cure speed (m/min) Surface cure [1, 9] | initial curing performance under mercury lamp [2] | initial curing under 395 nm LED [3] | time to peak max [4, 10] | time to peak max [4, 11] | cure speed in formulations at the same equivalent of phosphine oxide [5] | cure speed in formulations at the same equivalent of phosphine oxide [6] | stability: cure speed after accelerated ageing [7]
CCCCNC(=O)/C=C\C(=O)c1c(C)cc(C)c(C(=O)P(=O)(c2ccccc2)c2ccccc2)c1C [Precursor 3] | 1.8 m/min | No cure (Where cure speed was less than 0.3 m/min, the result was recorded as ‘No cure’) | 1.8 m/min | No cure (Where cure speed was less than 0.3 m/min, the result was recorded as ‘No cure’) |  |  |  |  |  |  | 
CCCCNC(=O)C(CC(=O)c1c(C)cc(C)c(C(=O)P(=O)(c2ccccc2)c2ccccc2)c1C)N1CCN(C)CC1 (single isomer, unassigned) [Photoinitiator 4] | 5.0 m/min | No cure (Where cure speed was less than 0.3 m/min, the result was recorded as ‘No cure’) | 5.0 m/min | 1.6 m/min |  |  |  |  |  |  | 
Cc1cc(C)c(C(=O)P(=O)(C(=O)c2c(C)cc(C)cc2C)c2ccccc2)c(C)c1 [Speedcure BPO, bis-(2,4,6-trimethylbenzoyl)phenyl phosphine oxide] |  |  |  |  | closely followed | best curing results |  |  |  |  | 
Cc1cc(C)c(C(=O)P(=O)(c2ccccc2)c2ccccc2)c(C)c1 [SpeedCure TPO, 2,4,6-trimethylbenzoyl diphenyl phosphine oxide] | 5.6 m/min | 2.2 m/min | 5.6 m/min | 2.2 m/min |  |  | 0.5 min | 0.06 min | Precursor 4<Photoinitiator 6<TPO | Precursor 4<Photoinitiator 6<TPO | larger reduction in cure speed than Photoinitiator 11
CCOP(=O)(C(=O)c1c(C)cc(C)cc1C)c1ccccc1 (stereo not shown) [Speedcure TPO-L, Ethyl (2,4,6-trimethylbenzoyl)phenyl phosphinate] |  |  |  |  |  |  | 0.06 min | 0.06 min |  |  | 
CCCCNC(=O)C(CC(=O)c1c(C)cc(C)c(C(=O)P(=O)(c2ccccc2)c2ccccc2)c1C)N1CCOCC1 (single isomer, unassigned) [Photoinitiator 3] | 3.9 m/min | No cure (Where cure speed was less than 0.3 m/min, the result was recorded as ‘No cure’) | 5.0 m/min | 1.7 m/min |  |  |  |  |  |  | 
